Results from BigSolDB 2.1.

CC(C)(c1ccc(O)cc1)c1ccc(O)cc1
solubility (mole fraction)
Settings | 273.15 K | 278.15 K | 283.15 K | 288.15 K | 293.15 K | 298.15 K | 303.15 K | 308.15 K | 313.15 K
in 1,4-dioxane | – | – | – | 0.205 | 0.224 | 0.245 | 0.264 | 0.285 | 0.307
in DMF | 0.298 | 0.308 | 0.324 | 0.342 | 0.361 | 0.383 | 0.409 | 0.43 | 0.452
in acetone | 0.293 | 0.301 | 0.311 | 0.321 | – | – | – | – | –
in acetonitrile | 0.135 | 0.141 | 0.15 | 0.16 | 0.169 | 0.176 | 0.185 | 0.196 | 0.207
in cyclohexanone | 0.0936 | 0.111 | 0.126 | 0.142 | 0.158 | 0.176 | 0.195 | 0.215 | 0.235
in ethanol | 0.21 | 0.215 | 0.221 | 0.227 | 0.233 | 0.24 | 0.246 | 0.253 | 0.26
in ethyl acetate | 0.235 | 0.237 | 0.24 | 0.243 | 0.246 | 0.251 | 0.255 | 0.26 | 0.265
in formamide | – | 0.14 | 0.151 | 0.164 | 0.178 | 0.193 | – | 0.231 | 0.252
in isopropanol | 0.0503 | 0.0603 | 0.0719 | 0.0858 | 0.097 | 0.111 | 0.123 | 0.139 | 0.153
in methanol | 0.187 | 0.19 | 0.194 | 0.198 | 0.202 | 0.207 | 0.212 | 0.217 | 0.223
in methyl acetate | 0.236 | 0.237 | 0.239 | 0.241 | 0.246 | 0.249 | 0.253 | 0.257 | 0.261
in n-butanol | 0.0748 | 0.0833 | 0.0942 | 0.108 | 0.12 | 0.136 | 0.149 | 0.163 | 0.181
in n-propanol | 0.176 | 0.18 | 0.188 | 0.195 | 0.2 | 0.207 | 0.214 | 0.22 | 0.225
in sec-butanol | 0.0342 | 0.0397 | 0.0472 | 0.0566 | 0.0654 | 0.0735 | 0.083 | 0.093 | 0.104
